As usually defined, the IC50 is the concentration at which inhibition is half-maximal.

Each structure is given as a SMILES string.

The target in this experiment is T1, NLRP3 inflammasome (Homo sapiens, UniProt Q96P20).
T1 construct: endogenous in cells; host or cells: THP-1 monocytic cells
T1 sequence (Q96P20 whole entry): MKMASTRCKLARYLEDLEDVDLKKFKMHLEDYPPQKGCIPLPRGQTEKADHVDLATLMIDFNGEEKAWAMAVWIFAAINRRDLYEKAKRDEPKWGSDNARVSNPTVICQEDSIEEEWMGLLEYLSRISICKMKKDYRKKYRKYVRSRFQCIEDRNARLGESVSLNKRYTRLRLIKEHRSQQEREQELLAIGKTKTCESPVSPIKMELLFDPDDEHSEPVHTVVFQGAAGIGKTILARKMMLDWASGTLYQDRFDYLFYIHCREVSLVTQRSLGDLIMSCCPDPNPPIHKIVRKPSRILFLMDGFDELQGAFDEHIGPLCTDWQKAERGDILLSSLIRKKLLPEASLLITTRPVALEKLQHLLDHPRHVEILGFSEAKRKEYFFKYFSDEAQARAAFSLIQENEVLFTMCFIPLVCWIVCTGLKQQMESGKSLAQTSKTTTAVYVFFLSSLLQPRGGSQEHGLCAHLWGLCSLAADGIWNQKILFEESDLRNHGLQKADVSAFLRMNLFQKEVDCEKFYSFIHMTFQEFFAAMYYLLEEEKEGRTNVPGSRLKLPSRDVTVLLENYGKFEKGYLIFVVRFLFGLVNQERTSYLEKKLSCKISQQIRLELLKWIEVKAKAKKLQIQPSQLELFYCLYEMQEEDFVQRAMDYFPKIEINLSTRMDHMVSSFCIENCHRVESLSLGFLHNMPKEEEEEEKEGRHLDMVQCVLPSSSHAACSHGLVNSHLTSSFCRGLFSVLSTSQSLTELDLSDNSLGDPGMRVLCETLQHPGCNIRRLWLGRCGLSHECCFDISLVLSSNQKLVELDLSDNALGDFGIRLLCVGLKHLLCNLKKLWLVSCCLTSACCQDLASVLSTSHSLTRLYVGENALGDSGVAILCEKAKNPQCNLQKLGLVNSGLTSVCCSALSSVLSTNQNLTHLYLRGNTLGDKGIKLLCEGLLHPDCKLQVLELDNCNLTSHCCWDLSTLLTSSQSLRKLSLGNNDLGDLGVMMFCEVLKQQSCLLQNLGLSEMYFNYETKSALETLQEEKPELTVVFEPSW
Briefly: IL-1β secretion assay (NLRP3 IC50) in LPS-primed, nigericin-activated THP-1 cells, HTRF. The following applies: monocytic THP-1 cells; LPS 10 ng/mL 3 h priming, then compound + nigericin 10 μM 2 h; relative IC50, 10 concentrations, geometric mean. It is filed as cell-based. As for the experimental part: Monocytic THP-1 cells were maintained in RPMI 1640 media (Gibco 21875)+10% FBS, (Gibco 10500)+1% penicillin/streptomycin (Gibco 15140-122). Cells were then plated at 40,000 cells per well in 384-well cell culture plates (CoRNning 3542) and maintained with RPMI1640 (Gibco 11835)+5% FBS (Gibco 10500). Activation of the NLRP3 inflammasome requires both an NF-kB-dependent priming step and the addition of a NLRP3 activator. The priming step was induced by LPS (10 ng/mL, InvivoGen ref tlrl-3pelps) for 3 h at 37° C., then compound, in a 1:3 serial dilution series in DMSO (final concentration DMSO 0.1%), and the activator nigericin (Sigma Aldrich, ref: SML1779) 10 μM (final concentration) were added to the cells and co-incubated for 2 hours. 16 μL supernatant was removed, and IL-1β levels were monitored using an HTRF assay (Human IL1b Kits HTRF Cisbio ref: 62HILBPEH) according to manufacturers' instructions.
Data were expressed as percentage of inhibition (I %) as compared to a maximum signal control containing no small molecule (I %=0%) according to the formula: 1%=(1−((Sample−Min))/((Max−Min)))×100, where: • Sample: Signal obtained in the presence of each compound tested, • Max: Maximum signal in the absence of compound added, • Min: Minimum or background signal obtained in the absence of activation signal.
Relative IC50 (IC50 rel) were obtained from a dose response curve with 10 concentrations. Final IC50 rels are expressed as the geometric mean.
Relative IC50 values were estimated with Biost@t-SPEED v2.4 internal software based on SAS system using the 4-parameter logistic model according to Ratkovsky and Reedy (D. A. Ratkovsky, T. J. Reedy, Choosing near-linear parameters in the four parameters logistic model radioligands and related assays. Biometrics, 42 (1986), 575-582): Y=A+C/((1+exp(−B*(log(X)−M)))), where: • A: Lower asymptote (BOTTOM), • A+C: Upper asymptote (TOP), • M: the logarithm of the concentration estimated at the inflexion point (the logarithm of the relative IC50), • B: Slope at the inflexion point of the curve.
A general note: TR-FRET usually uses a lanthanide donor and a delayed reading to cut background.
As to `Cc1ccc(-c2nnc(N3CC[C@@H]4CCN(C(C)C)C[C@@H]43)cc2C)c(O)c1` (racemic) [Example 528, 5-methyl-2-[4-methyl-6-[rac-(3aS,7aR)-6-isopropyl-3,3a,4,5,7,7a-hexahydro-2H-pyrrolo[2,3-c]pyridin-1-yl]pyridazin-3-yl]phenol], the IC50 is 4.9 nM.

Take `Cc1cc(C(F)(F)F)cc(O)c1-c1ccc(N2CCOC(C(C)(C)O)C2)nn1` (single isomer, unassigned) [Example 52, 2-[6-[2-(1-hydroxy-1-methyl-ethyl)morpholin-4-yl]pyridazin-3-yl]-3-methyl-5-(trifluoromethyl)phenol]: the IC50 turned out to be 1250 nM.

On to `Cc1cc(C)c(-c2ccc(N3CC4(CCC(O)C4)C3)nn2)c(O)c1` (single isomer, unassigned) [Example 95, 2-[6-(2-hydroxy-4,6-dimethyl-phenyl)pyridazin-3-yl]-2-azaspiro[3.4]octan-6-ol], for which the IC50 was 2200 nM.

As to `Cc1cc(C)c(-c2ccc(N3CCOC([C@H](C)O)C3)nn2)c(O)c1` (single isomer, unassigned) [Example 98], the IC50 came to 298 nM.

`Cc1cc(C)c(-c2ccc(N3CCOC([C@H](C)O)C3)nn2)c(O)c1` (single isomer, unassigned) [Example 99]: the IC50 stood at 752 nM.

As to `Cc1cc(C)c(-c2ccc(N3CCO[C@@H](C(C)O)C3)nn2)c(O)c1` (single isomer, unassigned) [Example 108], the IC50 came to 545 nM.

Consider `Cc1cc(C)c(-c2ccc(N3CCO[C@H](C4(N)CC4)C3)nn2)c(O)c1` (single isomer, unassigned) [Example 135], for which the IC50 was determined as 997 nM.

For `Cc1cc(C)c(-c2ccc(N3CCO[C@@H](C4(N)CC4)C3)nn2)c(O)c1` (single isomer, unassigned) [Example 136], the IC50 is 3030 nM.

With `Cc1cc(C)c(-c2ccc(N3CCO[C@H](CC(=O)N(C)C)C3)nn2)c(O)c1` (single isomer, unassigned) [Example 150], the IC50 is 1790 nM.

For the molecule `Cc1cc(C)c(-c2ccc(N3CCO[C@@H](CC(=O)N(C)C)C3)nn2)c(O)c1` (single isomer, unassigned) [Example 151], the IC50 amounted to 1170 nM.

On to `CCC(=O)C1CN(c2ccc(-c3c(C)cc(C)cc3O)nn2)CCO1` (single isomer, unassigned) [Example 156], for which the IC50 came to 1060 nM.

For the molecule `Cc1cc(C(F)(F)F)cc(O)c1-c1ccc(N2CC[C@@H]3CN(C)C[C@@H]32)nn1` (single isomer, unassigned) [Example 271], the IC50 came to 690 nM.

As to `Cc1cc(C(F)(F)F)cc(O)c1-c1ccc(N2CCO[C@@H](CF)C2)nn1` (single isomer, unassigned) [Example 283], the IC50 was determined as 135 nM.

As for `Cc1cc(C(F)(F)F)cc(O)c1-c1ccc(N2CCC[C@H](CO)C2=O)nn1` (single isomer, unassigned) [Example 287], the IC50 was 115 nM.

On to `Cc1cc(C(F)(F)F)cc(O)c1-c1ccc(N2CCC[C@@H](CO)C2=O)nn1` (single isomer, unassigned) [Example 288], for which the IC50 was found to be 143 nM.

On to `Cc1cc(C(F)(F)F)cc(O)c1-c1ccc(N2CCO[C@@H]3CCN(C)C[C@H]32)nn1` (single isomer, unassigned) [Example 301], for which the IC50 was found to be 868 nM.

In the case of `CC(=O)N1CC[C@@H]2OCCN(c3ccc(-c4c(C)cc(Cl)cc4O)nn3)[C@@H]2C1` (single isomer, unassigned) [Example 304], the IC50 was determined as 142 nM.

Consider `Cc1cc(Cl)cc(O)c1-c1ccc(N2CCO[C@H]3CCN(C)C[C@H]32)nn1` (single isomer, unassigned) [Example 307], for which the IC50 was found to be 410 nM.

Consider `Cc1cc(C(F)(F)F)cc(O)c1-c1ccc(N2CC[C@H](CO)C2=O)nn1` (single isomer, unassigned) [Example 325], for which the IC50 came to 275 nM.

`Cc1cc(C(F)(F)F)cc(O)c1-c1ccc(N2CC[C@@H](CO)C2=O)nn1` (single isomer, unassigned) [Example 326]: the IC50 came to 198 nM.

For the molecule `Cc1cc(C(F)(F)F)cc(O)c1-c1ccc(N2CCO[C@H](CC#N)C2)nn1` (single isomer, unassigned) [Example 327], the IC50 came out at 292 nM.

Consider `Cc1cc(C(F)(F)F)cc(O)c1-c1ccc(N2CCO[C@@H](CC#N)C2)nn1` (single isomer, unassigned) [Example 328], for which the IC50 stood at 219 nM.

Regarding `Cc1cc(C)c(-c2ccc(N3CC(=O)N[C@@H](CO)C3)nn2)c(O)c1` (single isomer, unassigned) [Example 329], the IC50 stood at 711 nM.

With `Cc1cc(C)c(-c2ccc(N3CC(=O)N[C@H](CO)C3)nn2)c(O)c1` (single isomer, unassigned) [Example 330], the IC50 turned out to be 987 nM.

In the case of `CNCC[C@@H]1CN(c2ccc(-c3c(C)cc(C(F)(F)F)cc3O)nn2)CCO1` (single isomer, unassigned) [Example 331], the IC50 came out at 1080 nM.

As to `CNCC[C@H]1CN(c2ccc(-c3c(C)cc(C(F)(F)F)cc3O)nn2)CCO1` (single isomer, unassigned) [Example 332], the IC50 turned out to be 396 nM.

With `Cc1cc(C(F)(F)F)cc(O)c1-c1ccc(N2CCO[C@H]3CN(C)C[C@H]32)nn1` (single isomer, unassigned) [Example 333], the IC50 amounted to 460 nM.

As to `Cc1cc(C(F)(F)F)cc(O)c1-c1ccc(N2CCO[C@@H]3CN(C)C[C@@H]32)nn1` (single isomer, unassigned) [Example 334], the IC50 was determined as 73 nM.

For the molecule `CC(=O)N1CCC2OCCN(c3ccc(-c4c(C)cc(C(F)(F)F)cc4O)nn3)C2C1` (single isomer, unassigned) [Example 336], the IC50 worked out at 1160 nM.

For `CC(=O)N1C[C@@H]2OCCN(c3ccc(-c4c(C)cc(C(F)(F)F)cc4O)nn3)[C@@H]2C1` (single isomer, unassigned) [Example 348], the IC50 amounted to 199 nM.

In the case of `CC(=O)N1CC[C@@H]2OCCN(c3ccc(-c4c(C)cc(C(F)(F)F)cc4O)nn3)[C@H]2C1` (single isomer, unassigned) [Example 349], the IC50 amounted to 953 nM.

As for `CC(=O)N1C[C@H]2OCCN(c3ccc(-c4c(C)cc(C(F)(F)F)cc4O)nn3)[C@H]2C1` (single isomer, unassigned) [Example 352], the IC50 stood at 375 nM.

In the case of `Cc1cc(C)c(-c2ccc(N3CC[C@H]4CCN(C)C[C@H]43)nn2)c(O)c1` (single isomer, unassigned) [Example 383], the IC50 came out at 1010 nM.

As for `Cc1cc(C(F)(F)F)cc(O)c1-c1ccc(N2CC[C@H]3CCNC[C@H]32)nn1` (single isomer, unassigned) [Example 393], the IC50 came out at 461 nM.

For the molecule `CC(=O)N1CC[C@H]2CCN(c3ccc(-c4c(C)cc(C)cc4O)nn3)[C@H]2C1` (single isomer, unassigned) [Example 413], the IC50 was 500 nM.

For the molecule `CC(=O)N1CC[C@@H]2CCN(c3ccc(-c4c(C)cc(C)cc4O)nn3)[C@@H]2C1` (single isomer, unassigned) [Example 414], the IC50 turned out to be 699 nM.

With `Cc1cccc(O)c1-c1ccc(N2CC[C@@H]3CCN(C)C[C@@H]32)nn1` (single isomer, unassigned) [Example 415], the IC50 was 4660 nM.

In the case of `Cc1cc(C(F)(F)F)cc(O)c1-c1ccc(N2CCOC(CO)C2=O)nn1` (single isomer, unassigned) [Example 419], the IC50 turned out to be 127 nM.

As for `Cc1cc(C(F)(F)F)cc(O)c1-c1ccc(N2CCOC(CO)C2=O)nn1` (single isomer, unassigned) [Example 420], the IC50 is 601 nM.

For the molecule `CCc1cccc(O)c1-c1ccc(N2CC[C@@H]3CCN(C)C[C@@H]32)nn1` (single isomer, unassigned) [Example 422], the IC50 came out at 1140 nM.

`CN1CC[C@@H]2CCN(c3ccc(-c4c(O)cccc4C(F)(F)F)nn3)[C@@H]2C1` (single isomer, unassigned) [Example 426]: the IC50 stood at 952 nM.

On to `Cc1cc(C)c(-c2ccc(N3CCO[C@@H]4C[C@@H](O)C[C@@H]43)nn2)c(O)c1` (single isomer, unassigned) [Example 466], for which the IC50 stood at 100 nM.

`Cc1cc(C)c(-c2ccc(N3CCO[C@H]4C[C@H](O)C[C@H]43)nn2)c(O)c1` (single isomer, unassigned) [Example 467]: the IC50 worked out at 14 nM.

On to `Cc1cc(N2CC[C@H]3CCN(C)C[C@H]32)nnc1-c1ccc(Cl)cc1O` (single isomer, unassigned) [Example 468], for which the IC50 is 544 nM.

(Values after patent US20240360151A1 (SANOFI, priority 2023, published 2024).)
